This is an account of results in ChEMBL document CHEMBL3507680, “University of Dundee, Gates Library screen for HepG2 cell viability”.

The series in a line: Human HepG2 cell viability assay in 384 well format. To be noted: HepG2 cells, read-out: Inhibition. Further details: dose 125 nL, time 70.5 hour; concentration not given beside the values. It counts as toxicity, cell-based.
For `CN1CC2(CCN(C(=O)Cn3ncc4ccccc4c3=O)CC2)OC1=O`, the cytotoxicity at 70.5 h is -13.8%.
The same measure for `C=C(C)COc1cccc(CN(C)C(C)c2nccs2)c1` (stereo not given): -4%; for `CN(Cc1n[nH]c2c1CCCC2)c1cc(N2CCOCC2)nc(N)n1`: -8.11%.
Turning to `Cc1cccc(CN2CCN(C(=O)c3cnc(C)[nH]c3=O)CC2)c1`, the cytotoxicity at 70.5 h was 12.7%.
As for `Cc1cc(C)c2c(N3CCN(CCN4CCOCC4)CC3)ncnc2n1`, the cytotoxicity at 70.5 h was found to be 16.3%.
Consider `COc1ccccc1OC1(C(=O)O)CCN(c2ncccc2F)CC1`, for which the cytotoxicity at 70.5 h was -7.34%.
For the compound `O=C(O)CCc1cc2n(n1)CCCN(C(=O)c1ccc(F)cc1F)C2`, the cytotoxicity at 70.5 h was -0.277%.
Consider `Cc1cc(NC(C)c2n[nH]c(C)n2)n2nc(C)c(C)c2n1` (stereo not given), for which the cytotoxicity at 70.5 h is 20%.
As to `Cc1cccc(-n2cc(CNc3ncnc4c3CCNCC4)cn2)c1`, the cytotoxicity at 70.5 h was -10.3%.
`CN(C)C(=O)CCC1CCCN(Cc2cccc(-c3ccccn3)c2)C1` (stereo not given): the cytotoxicity at 70.5 h came to 12.2%.
In the case of `NC(=O)c1cccnc1N1C[C@@H]2CC[C@H](C1)N(Cc1ccccn1)C2=O`, the cytotoxicity at 70.5 h was determined as 5.12%.
For `Cc1cc(C)c2[nH]c(C(=O)NCCN3CCCC3=O)c(C)c2c1`, the cytotoxicity at 70.5 h worked out at 23.6%.
`COc1ccc2c(c1)CC(C(=O)N(C)CCCc1cnn(C)c1)CO2` (stereo not given): the cytotoxicity at 70.5 h is -8.48%.
For `CN1C[C@@H](N)C[C@H]1C(=O)N1CCC(CCCc2ccccc2)CC1`, the cytotoxicity at 70.5 h is -0.968%.
Consider `Cc1nc2c(c(N3CCC(O)(CN4CCCC4)CC3)n1)CCN(C)CC2`, for which the cytotoxicity at 70.5 h was -3.57%.
Regarding `Cc1cccc2[nH]c(COCC(=O)N3CCCn4cncc4C3)nc12`, the cytotoxicity at 70.5 h is -6.34%.
Turning to `CCN(Cc1nccn1C)C(=O)c1ccc(NCc2ccccc2)nc1`, the cytotoxicity at 70.5 h was -2.21%.
The value for `O=C(O)c1cnc(-c2cccc3c2CCNC3)c(Cl)c1` was -11.1%.
`CCNC(=O)[C@@H]1C[C@@H](NC(=O)CSC)CN1Cc1ccncc1`: the cytotoxicity at 70.5 h is -10.5%.
`COc1ccc(Oc2cccnc2)cc1CN1CCCC1`: the cytotoxicity at 70.5 h was 28.5%.
The value for `NC(=O)c1ccc(C2CCCN2C(=O)CCn2nnc3ccccc32)s1` (stereo not given) was -4.98%; that for `CCC[C@H]1CN(Cc2ccccc2C#N)C[C@@H]1NS(C)(=O)=O` was -6.89%.
In the case of `COCc1cc(CNCc2c(C)n(CC(C)C)c3ccccc23)n[nH]1`, the cytotoxicity at 70.5 h is -11%.
As to `Cc1ccccc1CN1CCC(CNc2ncnc3c2CCNCC3)C1` (stereo not given), the cytotoxicity at 70.5 h turned out to be 1.87%.
The value for `CN(C)c1ccnc(-c2ccnc3c2ccn3C)n1` was -5.41%; that for `CC(C)[C@H]1CN(Cc2c[nH]nn2)C[C@@H]1NC(=O)C1CCOCC1` was -0.972%; that for `Cc1cc2nc(C(=O)NCc3cccnc3N(C)C)cc(C)n2n1` was 3.6%.
The value for `CN1CC2(CCN(C(=O)c3coc4c3C(=O)CCC4)C2)OC1=O` (stereo not given) was -6.28%; that for `COCC(C)N1CCc2onc(-c3ccc(F)c(F)c3)c2C1` (stereo not given) was -1.71%.
The value for `O=C(Cn1ccc(=O)cc1)N1C[C@H]2CC[C@@H]1CN(c1ncccn1)C2` was -8.59%; that for `O=C(N1CCOCC1)N1CCc2[nH]nc(COc3cccc(Cl)c3)c2C1` was -2.78%; that for `CC(=O)N1CCCN(C(C(=O)O)c2cccc(C)c2C)CC1` (stereo not given) was -12.3%.
Turning to `Cc1ccc(C(=O)N2CCc3ncccc3C2)cc1N1CCNC1=O`, the cytotoxicity at 70.5 h was 0.999%.
`CO[C@H]1C[C@@H](O)C12CCN(CCOc1ccc(Cl)cc1)CC2`: the cytotoxicity at 70.5 h was -1.42%.
The value for `CC(C)N(Cc1nc(-c2cccs2)no1)CC1CCC(=O)N1` (stereo not given) was -11.1%.
`Cc1nccc(N[C@H]2CN(CCC(=O)NC3CCCC3)C[C@@H]2C2CC2)n1`: the cytotoxicity at 70.5 h is -2.83%.
The value for `CC(C)=CCN1CC2(CCN(Cc3ncc[nH]3)CC2)CC1=O` was 11.6%.
The value for `Cc1cc(-c2cnn(C)c2)ccc1OCC(N)=O` was -2.62%; that for `COc1ccc(C(C(=O)O)N(C)CCN2CCCC2)cc1F` (stereo not given) was -9.88%.
In the case of `CCn1nc(CC(C)C)cc1C(=O)N1CCN([C@H]2CCCC[C@@H]2O)CC1`, the cytotoxicity at 70.5 h is -2.99%.
The same measure for `COc1cc(CN2CCCC(Nc3cccc(F)c3)C2)cc(Cl)c1O` (stereo not given): 6.37%.
Regarding `Cc1cc(C)c2[nH]c(C(=O)NCCN3CCOC3=O)c(C)c2c1`, the cytotoxicity at 70.5 h is 1.29%.
The same measure for `CN(CCO)C[C@@H]1CN(C(=O)c2cccc(OC(F)F)c2)C[C@@H]1CO`: -5.3%; for `COCC(Nc1nc(N(C)C)nc2c1CCNCC2)c1ccccn1` (stereo not given): 4.09%.
Consider `c1cn(-c2ccc(CN3CCCC3)cc2)c(-c2cc3n(n2)CCNC3)n1`, for which the cytotoxicity at 70.5 h is -6.8%.
On to `OC1(CNCCc2csc(-c3ccncc3)n2)CCCNC1` (stereo not given), for which the cytotoxicity at 70.5 h is -5.37%.
On to `CN(Cc1cnccn1)C(=O)c1ccc(CSc2nnc[nH]2)o1`, for which the cytotoxicity at 70.5 h is -20.7%.
`COCC(c1ccccn1)N(C)C(=O)c1cc(-c2cccn2C)n[nH]1` (stereo not given): the cytotoxicity at 70.5 h is -10.6%.
On to `Cc1cc(CNCC2(O)CCCN(CCCc3ccccc3)C2=O)n[nH]1` (stereo not given), for which the cytotoxicity at 70.5 h is -5.17%.
`c1cncc(CN(Cc2ccsc2)Cc2ccc(C3CCCCO3)o2)c1` (stereo not given): the cytotoxicity at 70.5 h turned out to be 6.4%.
The same measure for `O=C(c1cc(COc2ccc3c(c2)OCO3)[nH]n1)N1CCSCC1`: -0.532%; for `O=C(CN1CCOC1=O)N1CCC2(CCc3ccccc32)CC1`: 7.69%; for `Cc1cnc(C(=O)N2CC(=O)N(c3ccccc3Cl)CC2C)cn1` (stereo not given): -6.52%.
As to `Cc1nc(C(C)C)sc1CNC(=O)CCCN1CCCCC1`, the cytotoxicity at 70.5 h is 30.6%.
As for `CN1CCc2[nH]nc(C(=O)N3CCC4(CN(C)C(=O)O4)C3)c2C1` (stereo not given), the cytotoxicity at 70.5 h was -6.62%.
`O=C(CN1CC(c2ccccc2)CC1=O)N1CCC(c2ncc[nH]2)CC1` (stereo not given): the cytotoxicity at 70.5 h was -4.48%.
As for `Cc1ncsc1CCC(=O)N1CCCC1c1cccnc1` (stereo not given), the cytotoxicity at 70.5 h was -6.95%.
Regarding `Cc1cccc(C)c1OC1CN(Cc2cnc(N3CCOCC3)nc2)C1`, the cytotoxicity at 70.5 h is -7%.
Turning to `CSc1ccc(C(=O)C2CCCN(C(=O)CCn3cnnn3)C2)cc1` (stereo not given), the cytotoxicity at 70.5 h was 14.5%.
As for `O=C(c1cc(-c2ccco2)nc2c(Cl)cccc12)N1C[C@H]2CNC[C@H]2C1`, the cytotoxicity at 70.5 h was -6.09%.
The value for `c1ccc2sc(N3CCCC4(CCOC4)C3)nc2c1` (stereo not given) was -2.11%; that for `Cc1cnn(CCC(=O)N2CCN(C(=O)C3CC3)[C@@H]3CS(=O)(=O)C[C@@H]32)c1` was -5.71%.
Regarding `Cc1ccc(C(=O)N2CCC(C(F)(F)F)CC2)cc1N1CCNC1=O`, the cytotoxicity at 70.5 h was found to be 4.91%.
For the compound `CCn1nc(C(=O)N2CCNCC2C(=O)Nc2ccc(C)nc2)cc1C` (stereo not given), the cytotoxicity at 70.5 h stood at 3.8%.
The value for `Fc1ccc(N2CCCN(c3ccc(Cn4ccnc4)cn3)CC2)cc1` was 2.18%; that for `COC(=O)[C@@H]1C[C@H](NC(=O)c2cc(=O)[nH]c3ccc(C)cc23)CN1C` was -13%.
The same measure for `O=C(c1ccccn1)N1CCc2c(nc(-c3ccncc3)[nH]c2=O)C1`: -6.64%; for `CN(CC(O)CO)C(=O)c1coc(COc2cccc(F)c2)n1` (stereo not given): 8.53%.
`CN1CCC(N2CCCC(C(=O)N3Cc4ccccc4C3)C2)CC1` (stereo not given): the cytotoxicity at 70.5 h was -14.7%.
The value for `CNc1ccc(C)cc1C(=O)N1CCCC2(CCNC2)C1` (stereo not given) was -8.09%.
For the compound `O=C1O[C@@H]2CN(Cc3cccnc3)C[C@@H]2N1CCCN1CCOCC1`, the cytotoxicity at 70.5 h is -1.95%.
Turning to `COCC(=O)N1C[C@H]2CNC[C@@]2(C(=O)NCc2cc(C)n[nH]2)C1`, the cytotoxicity at 70.5 h is -5.27%.
The same measure for `COc1cc(-c2nc3c([nH]2)CCCNC3=O)ccc1O`: 5.51%.
Consider `COc1nc2c(cc1C(=O)NCCCc1nnc(N)s1)CCC2`, for which the cytotoxicity at 70.5 h is -1.23%.
Turning to `CN(CC1CCCCO1)c1nc2c(cc1C(N)=O)CCC2` (stereo not given), the cytotoxicity at 70.5 h is -8.46%.
On to `O=C(O)[C@@H]1CN(C2CCCC2)C[C@H]1C1CC1`, for which the cytotoxicity at 70.5 h is -8.02%.
The same measure for `CN1CCN(Cc2noc(-c3cc(-c4ccccc4F)n[nH]3)n2)CC1`: 17.5%; for `Cc1c[nH]c(C(=O)N2CCC(c3nnc(CN(C)CCO)n3C)CC2)c1`: 4.25%.
With `COc1ccc(F)c(-c2ncccc2NC(=O)C(C)C)c1`, the cytotoxicity at 70.5 h amounted to 6.17%.
`CCc1cc(C(=O)NCC2CCN(Cc3ccncc3)CC2)on1`: the cytotoxicity at 70.5 h was -9.67%.
Regarding `OC1(CN2CCCC2)CCCN(Cc2cnc(-c3ccccc3)nc2)C1` (stereo not given), the cytotoxicity at 70.5 h was found to be 31.4%.
As to `CN(Cc1cnn(C)c1)C1CCN(c2cccc(-c3cscn3)c2)CC1`, the cytotoxicity at 70.5 h was -2.02%.
The value for `Cc1nc(CCNC(=O)C(N)c2c(C)n[nH]c2C)sc1C` (stereo not given) was -13.1%; that for `O=C(Cc1cccnc1)NC1CCCN(CCCc2ccccc2)C1` (stereo not given) was -8.8%.
Take `CC(=O)NC1CCN(c2cc(C3CCNCC3)nc(C)n2)C1` (stereo not given): the cytotoxicity at 70.5 h is -6.6%.
As to `CN(C)C(=O)NCC(=O)N1CCCC2(CCC(=O)N(CC3CC3)C2)C1` (stereo not given), the cytotoxicity at 70.5 h is -13.6%.
As to `O=C(c1c[nH]c(=O)c(Cl)c1)N1C[C@@H]2CC[C@H](C1)N(CC1CCC1)C2`, the cytotoxicity at 70.5 h is 19.9%.
Regarding `O=C(CC1CCc2ccccc21)N1CCC(C(=O)O)(n2ccnc2)CC1` (stereo not given), the cytotoxicity at 70.5 h amounted to 22.5%.
The value for `N[C@H]1CN(C(=O)CCc2ccccn2)C[C@@H]1c1ccccc1` was 4.91%; that for `COc1ccc(CN2CCN(c3nccnc3OC)CC2=O)cc1` was -4.78%; that for `CCn1c(CN2CCCC2)nnc1C1CCN(Cc2cc(C)no2)CC1` was -6.8%.
`O=C1OCCN1Cc1nc(C2(c3ccc(F)cc3)CCOC2)no1` (stereo not given): the cytotoxicity at 70.5 h was -6.4%.
As for `O=C1C[C@H]2CC[C@@H](CN1)N2C(=O)CCc1ccc2c(c1)OCO2`, the cytotoxicity at 70.5 h is -12.8%.
In the case of `c1ccc(CCCn2cc(-c3nc(CN4CCOCC4)no3)nn2)cc1`, the cytotoxicity at 70.5 h was -15%.
As to `COc1ccccc1OC1CCN(C(=O)CCCN2CCOCC2)CC1`, the cytotoxicity at 70.5 h is -9.29%.
